According to patent US7091207B2, “Method of treating myocardial infarction with PDE-5 inhibitors” (Virginia Commonwealth University, priority 2002, dated 2006):
Marks after values point to notes of the source that are not given here.

Key:
[1] = system: nNOS, iNOS and eNOS knockout mouse hearts; experiment: Delayed cardioprotection in NOS gene-knockout mice, isolated perfused heart, 30 min global ischemia and 60 min reperfusion; format: in vivo; details: iNOS-KO mice
eNOS = experiment: Cardiac eNOS mRNA (RT-PCR) and protein (Western blot) expression after treatment; format: in vivo, mouse; details: 0.7 mg/kg IP
Procedure: Adult male outbred ICR mice were supplied by Harlan Inc (Indianapolis, Ind.). Viagra pills (Pfizer Inc) were ground into powder and dissolved in saline. The drug solution was filtered (0.45-μm pore size) before intraperitoneal injection. 1400W, an iNOS inhibitor, was obtained from Alexis. We used an isolated perfused mouse heart model subjected to 20 minutes of global ischemia and 30 minutes of reperfusion (Langendorff mode). Myocardial I-R injury was assessed by measuring infarct size, contractile function, and coronary flow as described previously (Xi, 1999). Twenty-eight mice were randomized into the following 4 groups: (n=6 to 9 per group): (1) saline (0.15 mL IP), (2) sildenafil (0.7 mg/kg IP, equivalent to 50 mg Viagra pill used for patients with erectile dysfunction, given 24 hours before I-R), (3) sildenafil+1400W (10 mg/kg IP, 14 given 30 minutes before I-R), and (4) saline+1400W. Measurement of NOS Isoforms Mice were treated with sildenafil (0.7 mg/kg IP), and their hearts were removed at 15, 30, and 45 minutes and 1, 2, 3, 4, and 24 hours after injection (n=3 per group). […] The target bands were identified on the basis of their specific size using DNA standards. iNOS and eNOS proteins were measured by Western blots as described previously. […] The mRNA and protein expression were quantified by scanning each of the RT-PCR or Western blot band using a densitometer (Bioquant 98). […]

iNOS = experiment: Cardiac iNOS mRNA (RT-PCR) and protein (Western blot) expression after treatment; format: in vivo, mouse; details: 0.7 mg/kg IP
Procedure: Adult male outbred ICR mice were supplied by Harlan Inc (Indianapolis, Ind.). Viagra pills (Pfizer Inc) were ground into powder and dissolved in saline. The drug solution was filtered (0.45-μm pore size) before intraperitoneal injection. 1400W, an iNOS inhibitor, was obtained from Alexis. We used an isolated perfused mouse heart model subjected to 20 minutes of global ischemia and 30 minutes of reperfusion (Langendorff mode). Myocardial I-R injury was assessed by measuring infarct size, contractile function, and coronary flow as described previously (Xi, 1999). Twenty-eight mice were randomized into the following 4 groups: (n=6 to 9 per group): (1) saline (0.15 mL IP), (2) sildenafil (0.7 mg/kg IP, equivalent to 50 mg Viagra pill used for patients with erectile dysfunction, given 24 hours before I-R), (3) sildenafil+1400W (10 mg/kg IP, 14 given 30 minutes before I-R), and (4) saline+1400W. Measurement of NOS Isoforms Mice were treated with sildenafil (0.7 mg/kg IP), and their hearts were removed at 15, 30, and 45 minutes and 1, 2, 3, 4, and 24 hours after injection (n=3 per group). Three nontreated hearts were used as controls. Tissue samples were ground under liquid nitrogen and homogenized with TRI Reagent (Molecular Research Center) for extracting total RNA, which was reverse-transcribed into cDNA at 50° C. for 30 minutes using a OneStep reverse transcription (RT)-polymerase chain reaction (PCR) kit from Qiagen. The oligonucleotide primers were synthesized on the basis of published sequences for murine iNOS, eNOS, and GAPDH15 (Integrated DNA Technology). The RT-PCR products were electrophoresed on 1.5% Trisacetate-EDTA agarose gel. The target bands were identified on the basis of their specific size using DNA standards. iNOS and eNOS proteins were measured by Western blots as described previously. […] The mRNA and protein expression were quantified by scanning each of the RT-PCR or Western blot band using a densitometer (Bioquant 98). […]

[2] = Systemic hemodynamics (blood pressure, heart rate, rate pressure product) in rabbits; format: in vivo, rabbit
[3] = oral 1.4 mg/kg, after 30 minutes
[4] = oral sildenafil citrate 1.4 mg/kg, Acute, 30-min Ischemia
[5] = oral sildenafil citrate 1.4 mg/kg, Acute, 60-min Reperfusion
[6] = oral sildenafil citrate 1.4 mg/kg, Acute, 80-min Reperfusion
[7] = oral sildenafil citrate 1.4 mg/kg, Acute, 120-min Reperfusion
[8] = oral sildenafil citrate 1.4 mg/kg, Acute, Baseline
[9] = oral sildenafil citrate 1.4 mg/kg, Acute, Preischemia
[10] = oral sildenafil citrate 1.4 mg/kg, Delayed, 30-min Ischemia
[11] = oral sildenafil citrate 1.4 mg/kg, Delayed, 60-min Reperfusion
[12] = oral sildenafil citrate 1.4 mg/kg, Delayed, 80-min Reperfusion
[13] = oral sildenafil citrate 1.4 mg/kg, Delayed, 120-min Reperfusion
[14] = oral sildenafil citrate 1.4 mg/kg, Delayed, Baseline
[15] = oral sildenafil citrate 1.4 mg/kg, Delayed, Preischemia
[16] = sildenafil 0.7 mg/kg IV, acute phase, 30-min Ischemia
[17] = sildenafil 0.7 mg/kg IV, acute phase, Baseline
[18] = sildenafil 0.7 mg/kg IV, acute phase, Preischemia
[19] = sildenafil 0.7 mg/kg IV, acute phase, Reperfusion (60 min)
[20] = sildenafil 0.7 mg/kg IV, acute phase, Reperfusion (120 min)
[21] = sildenafil 0.7 mg/kg IV, acute phase, Reperfusion (180 min)
[22] = sildenafil 0.7 mg/kg IV, delayed phase, 30-min Ischemia
[23] = sildenafil 0.7 mg/kg IV, delayed phase, Baseline
[24] = sildenafil 0.7 mg/kg IV, delayed phase, Preischemia
[25] = sildenafil 0.7 mg/kg IV, delayed phase, Reperfusion (60 min)
[26] = sildenafil 0.7 mg/kg IV, delayed phase, Reperfusion (120 min)
[27] = sildenafil 0.7 mg/kg IV, delayed phase, Reperfusion (180 min)
[28] = sildenafil citrate 0.7 mg/kg intravenous, within 2 minutes

With `CCCc1nn(C)c2c(=O)[nH]c(-c3cc(S(=O)(=O)N4CCN(C)CC4)ccc3OCC)nc12` [sildenafil] the delayed cardioprotection [1] was “absent”, the “eNOS mRNA and protein expression” value (eNOS) was “increase” and the “time of peak eNOS mRNA level” value (eNOS) was 45 min. For the same compound, the “iNOS mRNA and protein expression” value (iNOS) was “increase”, the “magnitude of increase, iNOS compared with eNOS” value (iNOS) was “much higher for iNOS” and the “time of peak iNOS mRNA level” value (iNOS) was 2 h. For the same compound, the “changes in heart rate” value ([2]; 0.7 mg/kg intravenous) was “No significant changes in heart rate”, the “time until systemic hemodynamics returned to nearly baseline levels” value ([2]; 0.7 mg/kg intravenous) was no more than 5 min and the “changes in heart rate” value ([2]; oral 1.4 mg/kg) was “No changes in heart rate”. The “decrease in diastolic pressure” value [2, 3] was roughly 12.5%, the “decrease in mean arterial pressure” value [2, 3] was roughly 10.3% and the “decrease in systolic pressure” value [2, 3] was “approximately 9.2%”. The hypotensive response ([2]; oral 1.4 mg/kg, at 60 minutes) was “remained significant”, the HR [2, 4] was 216 ± 18 beats/min and the MAP [2, 4] was 96 ± 6 mmHg. The “RPP (systolic arterial pressure x HR)” value [2, 4] was 23137 ± 1617, the HR [2, 5] was 205 ± 14 beats/min and the MAP [2, 5] was 89 ± 0.4 mmHg. For the same compound, the “RPP (systolic arterial pressure x HR)” value [2, 5] was 21647 ± 2274, the HR [2, 6] was 187 ± 9 beats/min and the MAP [2, 6] was 81 ± 5c mmHg. The “RPP (systolic arterial pressure x HR)” value [2, 6] was 18555 ± 1336, the HR [2, 7] was 187 ± 9 beats/min and the MAP [2, 7] was 82 ± 5c mmHg. For the same compound, the “RPP (systolic arterial pressure x HR)” value [2, 7] was 17738 ± 860c, the HR [2, 8] was 216 ± 5 beats/min and the MAP [2, 8] was 100 ± 2a mmHg. For the same compound, the “RPP (systolic arterial pressure x HR)” value [2, 8] was 24859 ± 239, the HR [2, 9] was 210 ± 20 beats/min and the MAP [2, 9] was 95 ± 3 mmHg. The “RPP (systolic arterial pressure x HR)” value [2, 9] was 22848 ± 2027, the HR [2, 10] was 190 ± 18 beats/min and the MAP [2, 10] was 104 ± 5 mmHg. For the same compound, the “RPP (systolic arterial pressure x HR)” value [2, 10] was 22089 ± 2288, the HR [2, 11] was 185 ± 14 beats/min and the MAP [2, 11] was 103 ± 8 mmHg. For the same compound, the “RPP (systolic arterial pressure x HR)” value [2, 11] was 20955 ± 1469, the HR [2, 12] was 173 ± 16 beats/min and the MAP [2, 12] was 94 ± 8 mmHg. The “RPP (systolic arterial pressure x HR)” value [2, 12] was 18838 ± 1913, the HR [2, 13] was 171 ± 15 beats/min and the MAP [2, 13] was 94 ± 8 mmHg. For the same compound, the “RPP (systolic arterial pressure x HR)” value [2, 13] was 17692 ± 978, the HR [2, 14] was 187 ± 15 beats/min and the MAP [2, 14] was 109 ± 3 mmHg. The “RPP (systolic arterial pressure x HR)” value [2, 14] was 22626 ± 2173, the HR [2, 15] was 193 ± 7 beats/min and the MAP [2, 15] was 99 ± 3 mmHg. The “RPP (systolic arterial pressure x HR)” value [2, 15] was 21938 ± 989, the HR [2, 16] was 208 ± 11 beats/min and the MAP [2, 16] was 76 ± 7 mmHg. For the same compound, the “RPP (systolic arterial pressure × HR)” value [2, 16] was 17,728 ± 1441, the HR [2, 17] was 247 ± 20 beats/min and the MAP [2, 17] was 77 ± 4^f mmHg. The “RPP (systolic arterial pressure × HR)” value [2, 17] was 21,988 ± 2129, the HR [2, 18] was 204 ± 8 beats/min and the MAP [2, 18] was 81 ± 6^f mmHg. For the same compound, the “RPP (systolic arterial pressure × HR)” value [2, 18] was 18,132 ± 999, the HR [2, 19] was 201 ± 14 beats/min and the MAP [2, 19] was 76 ± 5^f mmHg. The “RPP (systolic arterial pressure × HR)” value [2, 19] was 16748 ± 1425, the HR [2, 20] was 177 ± 11^a beats/min and the MAP [2, 20] was 74 ± 5^f mmHg. The “RPP (systolic arterial pressure × HR)” value [2, 20] was 14909 ± 1289^a, the HR [2, 21] was 158 ± 12^a beats/min and the MAP [2, 21] was 73 ± 5^f mmHg. The “RPP (systolic arterial pressure × HR)” value [2, 21] was 12,967 ± 1115^a, the HR [2, 22] was 189 ± 8^a beats/min and the MAP [2, 22] was 73 ± 9 mmHg. The “RPP (systolic arterial pressure × HR)” value [2, 22] was 15,395 ± 1784, the HR [2, 23] was 229 ± 14 beats/min and the MAP [2, 23] was 76 ± 5^f mmHg. The “RPP (systolic arterial pressure × HR)” value [2, 23] was 19,692 ± 1528, the HR [2, 24] was 215 ± 8 beats/min and the MAP [2, 24] was 71 ± 5^f mmHg. For the same compound, the “RPP (systolic arterial pressure × HR)” value [2, 24] was 17,764 ± 1174, the HR [2, 25] was 179 ± 8^a,b beats/min and the MAP [2, 25] was 74 ± 9^f mmHg. For the same compound, the “RPP (systolic arterial pressure × HR)” value [2, 25] was 15,086 ± 1989, the HR [2, 26] was 170 ± 8^a,b beats/min and the MAP [2, 26] was 73 ± 5^f mmHg. For the same compound, the “RPP (systolic arterial pressure × HR)” value [2, 26] was 13,477 ± 1285^a, the HR [2, 27] was 164 ± 11^a,b beats/min and the MAP [2, 27] was 68 ± 3^f mmHg. The “RPP (systolic arterial pressure × HR)” value [2, 27] was 12,196 ± 1088^a, the “decline in diastolic pressure” value [2, 28] was 47.3% and the “decline in mean arterial pressure” value [2, 28] was 38.8%. The “decline in systolic pressure” value [2, 28] was 24.5%.
